# According to paper PMC6176987, “Correction of cognitive deficits in mouse models of Down syndrome by a pharmacological inhibitor of DYRK1A” (Disease Models & Mechanisms, 2018):
# Legend:
# Dp1Yey mice = assay: Resting state fMRI brain functional connectivity, Dp1Yey mice; conditions: L41-treated vs vehicle-treated Dp1Yey mice
# CLK2 = CLK2 (Mus musculus, UniProt O35491); assay: Recombinant protein kinase assay, CLK2; assay type: biochemical
# CLK3 = CLK3 (Mus musculus, UniProt O35492); assay: Recombinant protein kinase assay, CLK3; assay type: biochemical
# Sequence of CLK3 (O35492 whole entry): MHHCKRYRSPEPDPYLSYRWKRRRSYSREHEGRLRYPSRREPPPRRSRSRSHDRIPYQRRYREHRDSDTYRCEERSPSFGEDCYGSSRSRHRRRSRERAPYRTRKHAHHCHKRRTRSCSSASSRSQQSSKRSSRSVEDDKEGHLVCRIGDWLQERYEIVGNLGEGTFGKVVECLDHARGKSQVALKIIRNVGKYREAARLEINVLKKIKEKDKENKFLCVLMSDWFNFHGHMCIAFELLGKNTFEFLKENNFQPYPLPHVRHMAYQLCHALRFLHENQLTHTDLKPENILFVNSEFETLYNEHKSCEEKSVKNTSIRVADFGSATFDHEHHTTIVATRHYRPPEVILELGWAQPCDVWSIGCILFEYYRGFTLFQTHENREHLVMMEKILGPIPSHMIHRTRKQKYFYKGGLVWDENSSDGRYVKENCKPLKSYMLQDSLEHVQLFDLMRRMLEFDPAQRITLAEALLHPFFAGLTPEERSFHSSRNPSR
# Ts65Dn mice = assay: Novel object recognition (NOR) test in Ts65Dn mice; assay type: in vivo, mouse; conditions: daily i.p. treatment for 19 days
# Experimental: Behavioural studies were conducted in 12- to 20-week-old male animals. All assessments were scored blind to genotype and treatment, as recommended by the ARRIVE guidelines ([Karp et al., 2015]; [Kilkenny et al., 2010]). […] The final formulation was prepared just prior to use as a 2 mg/ml solution diluted in PEG300/water (50/45), to reach a final DMSO/PEG300/water 5/50/45 (v/v/v) mix. Treated animals received a daily dose (5, 12 or 19 days) of this formulation by i.p. injection of 20 mg/kg/day. Nontreated animals received the same formulation without L41.
# The NOR task is based on the innate tendency of rodents to differentially explore a novel object over a familiar one ([Ennaceur and Delacour, 1988]). Day 1 was a habituation session. Mice freely explored the apparatus, a white circular arena (53 cm diameter) placed in a dimly lit testing room (40 lux). On day 2, the acquisition phase, mice were free to explore two identical objects for 10 min. Mice were then returned to their home cage for a 24 h retention interval. […] Object exploration was manually scored and defined as the orientation of the nose to the object at a distance <1 cm. For the retention phase, the percent of time spent exploring familiar versus novel objects was calculated to assess memory performance.
# Tg(Dyrk1a) mice = assay: Place object location (POR) spatial memory in Tg(Dyrk1a) mice; assay type: in vivo, mouse; conditions: L41-treated Tg(Dyrk1a) mice
# DYRK1A = target: T1, DYRK1A (Mus musculus, UniProt Q61214); assay: Brain DYRK1A catalytic activity after treatment, Tg(Dyrk1a) mice; assay type: in vivo
# T1 construct: DYRK1A was purified from brain extracts by immunoprecipitation; from tissue; host or cells: mouse brain (wt, Tg(Dyrk1a), Ts65Dn)
# Experimental: Protein kinase assays to measure the catalytic activity of DYRK1A in the brains of the animals treated with or without drugs were performed as follows: frozen half brains were homogenized in lysis buffer (1.2 ml/half brain) using Precellys® homogenizer tubes. After centrifugation at 2800 g for 2×15 s, 1 mg brain extract was incubated with 2 µg DYRK1A (H00001859 M01, Interchim) or GSK3-β (MBS8508391, Emelca Bioscience, France) antibodies at 4°C for 1 h under gentle rotation. Then, 20 µl protein G agarose beads (Thermo Fisher Scientific, France), previously washed three times with bead buffer (50 mM Tris pH 7.4, 5 mM NaF, 250 mM NaCl, 5 mM EDTA, 5 mM EGTA, 0.1% Nonidet P-40 and protease inhibitor cocktail from Roche, France), were added to the mix and gently rotated at 4°C for 30 min. After a 1 min spin at 10,000 g and removal of the supernatant, the pelleted immune complexes were washed three times with bead buffer, and a last time with Buffer C (60 mM β-glycerophosphate, 30 mM p-nitrophenolphosphate, 25 mM Mops pH 7.2, 5 mM EGTA, 15 mM MgCl2, 2 mM dithiothreitol, 0.1 mM sodium orthovanadate, 1 mM phenylphosphate, protease inhibitor cocktail). DYRK1A or GSK-3 immobilized on beads were assayed in buffer C as described in the Supplementary Materials and Methods with Woodtide ([…]) (1.5 µg/assay) or GSK3-tide ([…]pSED-EEE, where pS stands for phosphorylated serine) as substrates.
# Sequence of CLK2 (O35491 whole entry): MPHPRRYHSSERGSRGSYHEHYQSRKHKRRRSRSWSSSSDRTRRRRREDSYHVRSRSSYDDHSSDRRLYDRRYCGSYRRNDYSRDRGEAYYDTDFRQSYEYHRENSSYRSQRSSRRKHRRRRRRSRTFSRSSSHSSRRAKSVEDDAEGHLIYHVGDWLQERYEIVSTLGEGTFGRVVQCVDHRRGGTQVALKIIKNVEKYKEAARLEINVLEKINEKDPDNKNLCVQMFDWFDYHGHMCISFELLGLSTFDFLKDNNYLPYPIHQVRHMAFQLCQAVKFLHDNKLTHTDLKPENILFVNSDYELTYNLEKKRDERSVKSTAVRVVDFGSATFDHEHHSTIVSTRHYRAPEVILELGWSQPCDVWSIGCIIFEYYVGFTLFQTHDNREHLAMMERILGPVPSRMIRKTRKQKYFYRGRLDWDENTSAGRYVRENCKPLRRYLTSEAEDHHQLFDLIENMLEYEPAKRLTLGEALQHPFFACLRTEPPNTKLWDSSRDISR
smiles,measurement,setting,value
O=C1NC(Nc2ccccc2)=N/C1=C\c1ccc2c(c1)OCO2 [L41],Effect on altered default mode network (DMN) pattern,Dp1Yey mice,rescued
same,IC50,CLK2,130 nM
same,IC50,CLK3,1200 nM
same,NOR test outcome,Ts65Dn mice,rescue
same,Effect on place memory (place object location),Tg(Dyrk1a) mice,no restoring effect
same,Tg(Dyrk1a) brain DYRK1A activity,DYRK1A; 24 h after the last treatment of 19 days,normalized to wt levels
same,Tg(Dyrk1a) brain DYRK1A activity,DYRK1A; 48 h after the last treatment of 19 days,no more effects
same,DYRK1A inhibition in Tg(Dyrk1a) mice brains,DYRK1A; 5 days of treatment,not significant
same,Tg(Dyrk1a) brain DYRK1A activity,DYRK1A; 12 days of treatment,normalized
same,Reduction of brain DYRK1A activity,"DYRK1A; 19 days daily i.p., normalized to GSK-3α/β activity",~30%
same,Tg(Dyrk1a) brain DYRK1A activity,DYRK1A; 19 days of treatment,normalized
